Tested on: monosodium urate (MSU) crystal-induced air pouch inflammation
Experiment: Air Pouch Model 3: MSU crystal air pouch, rodent model of gout
Assay type: in vivo, male Sprague-Dawley rats
Details: 30 min before MSU; for Average Exudate Volume, Mean / Average Plasma Extravasation, OD620 nm, Mean / Total WBC in Sample, Mean / WBC in exudate, Mean: 4 h after MSU
Protocol: The objective of this study was to evaluate the anti-inflammatory potency of Tranilast. This evaluation was carried out in male Sprague-Dawley rats in a rodent model of gout. The animals were injected subcutaneously with 20 ml of sterile air, followed three days later by a supplemental injection with 20 ml of sterile air. Six days after the initial sterile air injection, the rats were injected intravenously with Evan's Blue and pretreated for thirty minutes with oral administration of 25 mg/kg, 50 mg/kg, 100 mg/kg, 200 mg/kg, or 300 mg/kg tranilast. After the pretreatment period, the rats were injected with 150 mg of monosodium urate (MSU) crystals (10 mg/ml) into the air pouch. Four hours later, the air pouch was injected with 5 ml heparinized saline and the entire contents of the air pouch removed, recording the total volume. The air pouch contents were evaluated for plasma extravasation and total white blood cell (WBC) count.
(§1) On day 0 the rats were anesthetized in a biological cabinet, the nape of the neck was cleansed with 70% isopropanol followed by iodine tincture (VEDCO). Twenty ml sterile (0.22 μm, Millipore, Cat. SLGSV255F) air was injected subcutaneously using a 23 G×2 inch needle fixed to a 20 ml syringe. The rats were returned to routine housing. No adverse reactions were observed.
as §1, with “day 3” for “day 0”, “μm, Fisher Scientific,” for “μm, Millipore,”, “Cat. 09-720-3)” for “Cat. SLGSV255F)”
On day 6 the rats were weighed (Mettler, Model PE3000, SN: F69474) and injected intravenously injected with 2 ml/kg Evans Blue. The animals were dosed orally with 0.5 ml/kg, 1 ml/kg, 2 ml/kg, 4 ml/kg tranilast, or 6 ml/kg tranilast or 6 ml/kg vehicle.
Thirty minutes after test material administration, the rats were anesthetized and six groups (2-7) were injected into the air pouch with 15 ml MSU using a 19 G×2 inch needle fitted to a 20 ml syringe. Group 1 was injected with 15 ml saline. The rats were returned to their cages, no adverse affects were observed.
Four hours after MSU/saline injection, the rats were anesthetized and 5 ml 10 U/ml heparinized saline was injected into the air pouch. The air pouch was gently massaged, the contents immediately removed using a 14 G×1 inch needle fitted to a 6 ml syringe, and the exudate volume recorded. An aliquot of the exudate was transferred to heparin-treated microtainer tubes (Becton Dickinson, Cat. 365958) for white blood cell (WBC) counting. The remainder of the exudate was centrifuged (Hermle Labrotechnik, Model Z200A, SN: 44060036), the supernatants removed and evaluated at OD620nm (Spectronic Unicam, Model 4000 1/4, SN: 3SGD003006) for plasma extravasation.

COc1ccc(/C=C/C(=O)Nc2ccccc2C(=O)O)cc1OC [Tranilast, 2-[[3-(3,4-dimethoxyphenyl)-1-oxo-2-propenyl]amino]benzoic acid]
Average Exudate Volume, Mean (25 mg/kg oral): 6.9 mL | Average Plasma Extravasation, OD620 nm, Mean (25 mg/kg oral): 1.181 | Total WBC in Sample, Mean (25 mg/kg oral): 204170000 | WBC in exudate, Mean (25 mg/kg oral): 31260000 cells/ml | Average Exudate Volume, Mean (50 mg/kg oral): 4.8 mL | Average Plasma Extravasation, OD620 nm, Mean (50 mg/kg oral): 1.071 | Total WBC in Sample, Mean (50 mg/kg oral): 96948000 | WBC in exudate, Mean (50 mg/kg oral): 18900000 cells/ml | Average Exudate Volume, Mean (100 mg/kg oral): 6.4 mL | Average Plasma Extravasation, OD620 nm, Mean (100 mg/kg oral): 1.276 | Total WBC in Sample, Mean (100 mg/kg oral): 145408000 | WBC in exudate, Mean (100 mg/kg oral): 27440000 cells/ml | Average Exudate Volume, Mean (200 mg/kg oral): 6.2 mL | Average Plasma Extravasation, OD620 nm, Mean (200 mg/kg oral): 1.033 | Total WBC in Sample, Mean (200 mg/kg oral): 71692000 | WBC in exudate, Mean (200 mg/kg oral): 12000000 cells/ml | Average Exudate Volume, Mean (300 mg/kg oral): 5.6 mL | Average Plasma Extravasation, OD620 nm, Mean (300 mg/kg oral): 0.611 | Total WBC in Sample, Mean (300 mg/kg oral): 29232000 | WBC in exudate, Mean (300 mg/kg oral): 5880000 cells/ml | inhibition of plasma extravasation (highest dose 300 mg/kg oral): 65% | inhibition of white blood cell infiltration (highest dose 300 mg/kg oral): 90% | effect on MSU-induced parameters (plasma extravasation, leukocyte infiltration) (oral 25-300 mg/kg): dose-dependent inhibition

From patent publication US20100160351A1, “PHARMACEUTICAL COMPOSITIONS AND METHODS FOR TREATING HYPERURICEMIA AND RELATED DISORDERS” (NUON THERAPEUTICS, INC., priority 2008, published 2010)
